Laboratory results reported in PubChem BioAssay AID330 (DTP/NCI, 2004).
“And” between values parts separate entries of the source, which are not always exact repeats. Equal entries are not always repeated. Toxic doses and inconclusive results are not listed.

Test system: P388 leukemia ip, CD2F1 mice, survival T/C
Assay: NCI In Vivo Anticancer Drug Screen. Data for tumor model P388 Leukemia (intraperitoneal) in CD2F1 (CDF1) mice
Settings: endpoint: median survival time, higher = longer survival
How it was run: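 Mice carrying the transplanted tumor received test compound or vehicle. Survival was recorded in each group, and the value is the treated-group measurement divided by that of the vehicle-treated control group.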

[1] = dose: 50.0 mg/kg/injection, schedule: Q01DX005 (ip), vehicle: Klucel (hydroxypropylcellulose) (HPC)
[2] = dose: 100.0 mg/kg/injection, schedule: Q01DX005 (ip), vehicle: Klucel (hydroxypropylcellulose) (HPC)
[3] = dose: 200.0 mg/kg/injection, schedule: Q01DX005 (ip), vehicle: Klucel (hydroxypropylcellulose) (HPC)
[4] = dose: 12.5 mg/kg/injection, schedule: Q01DX009 (ip), vehicle: Klucel (hydroxypropylcellulose) (HPC)
[5] = dose: 25.0 mg/kg/injection, schedule: Q01DX009 (ip), vehicle: Klucel (hydroxypropylcellulose) (HPC)
[6] = dose: 50.0 mg/kg/injection, schedule: Q01DX009 (ip), vehicle: Klucel (hydroxypropylcellulose) (HPC)
[7] = dose: 100.0 mg/kg/injection, schedule: Q01DX009 (ip), vehicle: Klucel (hydroxypropylcellulose) (HPC)
[8] = dose: 200.0 mg/kg/injection, schedule: Q01DX009 (ip), vehicle: Klucel (hydroxypropylcellulose) (HPC)
[9] = dose: 60.0 mg/kg/injection, schedule: Q01DX005 (ip), vehicle: saline with Tween-80
[10] = dose: 120.0 mg/kg/injection, schedule: Q01DX005 (ip), vehicle: saline with Tween-80
[11] = dose: 240.0 mg/kg/injection, schedule: Q01DX005 (ip), vehicle: saline with Tween-80
[12] = dose: 50.0 mg/kg/injection, schedule: Q01DX005 (ip), vehicle: saline with Tween-80
[13] = dose: 50.0 mg/kg/injection, schedule: Q01DX009 (ip), vehicle: saline
[14] = dose: 100.0 mg/kg/injection, schedule: Q01DX009 (ip), vehicle: saline
[15] = dose: 200.0 mg/kg/injection, schedule: Q01DX009 (ip), vehicle: saline
[16] = dose: 12.5 mg/kg/injection, schedule: Q04DX003 (ip), vehicle: saline with Tween-80
[17] = dose: 25.0 mg/kg/injection, schedule: Q04DX003 (ip), vehicle: saline with Tween-80
[18] = dose: 50.0 mg/kg/injection, schedule: Q04DX003 (ip), vehicle: saline with Tween-80
[19] = dose: 100.0 mg/kg/injection, schedule: Q04DX003 (ip), vehicle: saline with Tween-80
[20] = dose: 100.0 mg/kg/injection, schedule: Q04DX002 (ip), vehicle: saline with Tween-80
[21] = dose: 200.0 mg/kg/injection, schedule: Q04DX002 (ip), vehicle: saline with Tween-80
[22] = dose: 400.0 mg/kg/injection, schedule: Q04DX002 (ip), vehicle: saline with Tween-80
[23] = dose: 50.0 mg/kg/injection, schedule: Q01DX009 (ip), vehicle: saline with Tween-80
[24] = dose: 100.0 mg/kg/injection, schedule: Q01DX009 (ip), vehicle: saline with Tween-80
[25] = dose: 200.0 mg/kg/injection, schedule: Q01DX009 (ip), vehicle: saline with Tween-80

COC(=O)c1cn(C)c(-c2ccccc2)c1C(=O)OC
T/C [1]: 100 % of control | T/C [2]: 100 % of control | T/C [3]: 97 % of control

CN1C2CCC1C1N=NN(c3cc(C(F)(F)F)cc(C(F)(F)F)c3)C1(N1CCOCC1)C2 (centres undefined)
T/C (dose: 50.0 mg/kg/injection, schedule: Q01DX005 (ip), vehicle: Klucel + Tween-80): 102 % of control | T/C (dose: 100.0 mg/kg/injection, schedule: Q01DX005 (ip), vehicle: Klucel + Tween-80): 97 % of control

Clc1c2ccccc2[se][n+]1-c1ccccc1
T/C [4]: 109 % of control | T/C [5]: 111 % of control | T/C [6]: 115 % of control

CS(=O)(=O)/C=C/c1cc2ccccc2[nH]1
T/C [6]: 89 % of control | T/C [7]: 101 % of control | T/C [8]: 104 % of control

COc1ccc(OC)c(NC(=O)CCCC(=O)CC(=O)C(C)(C)C)c1
T/C [9]: 101 % of control | T/C [10]: 104 % of control | T/C [11]: 93 % of control

COc1ccc(/C=C\Cc2cc3c(cc2OCCO)OCO3)cc1
T/C [9]: 101 % of control | T/C [10]: 94 % of control | T/C [11]: 98 % of control

C[C@@]12CCC[C@@H]1OC(=O)C2
T/C [12]: 98 % of control

CCN(C/C=C/CN(CC)C(=S)Nc1ccccc1)C(=S)Nc1ccccc1
T/C [13]: 106 % of control | T/C [14]: 108 % of control | T/C [15]: 106 % of control

O=C(O)CCSCCCCCCCCCCCCSCCC(=O)O
T/C [1]: 95 % of control | T/C [2]: 89 % of control | T/C [3]: 87 % of control

O=c1[nH]c2c(ccc3cccnc32)c2c1CCC2
T/C [16]: 98 % of control | T/C [17]: 95 % of control | T/C [18]: 98 % of control

O=C(CBr)N1c2ccccc2Sc2c1ccc1ccccc21
T/C (dose: 6.25 mg/kg/injection, schedule: Q01DX009 (ip), vehicle: Klucel (hydroxypropylcellulose) (HPC)): 86 % of control | T/C [4]: 111 % of control | T/C [5]: 117 % of control | T/C [6]: 117 % of control | T/C (dose: 50.0 mg/kg/injection, schedule: Q04DX003 (ip), vehicle: Klucel (hydroxypropylcellulose) (HPC)): 99 % of control and 114 % of control | T/C [7]: 120 % of control | T/C (dose: 100.0 mg/kg/injection, schedule: Q04DX003 (ip), vehicle: Klucel (hydroxypropylcellulose) (HPC)): 99 % of control and 113 % of control and 120 % of control | T/C [8]: 120 % of control | T/C (dose: 200.0 mg/kg/injection, schedule: Q04DX003 (ip), vehicle: Klucel (hydroxypropylcellulose) (HPC)): 101 % of control and 120 % of control and 87 % of control | T/C (dose: 400.0 mg/kg/injection, schedule: Q04DX003 (ip), vehicle: Klucel (hydroxypropylcellulose) (HPC)): 106 % of control and 123 % of control

CCCCCCCCCC1(O)OC(=O)C(C)=C1C (centres undefined)
T/C [16]: 115 % of control | T/C [17]: 100 % of control | T/C [18]: 102 % of control

C=C(C)[C@]12CC(C)C34OC(/C=C\C=C\CCCCCCCCC)(O[C@@H]1[C@@H]3[C@@H]1O[C@]1(CO)[C@@H](O)[C@]1(O)C(=O)C(C)=C[C@@H]41)O2 (some centres undefined)
T/C (dose: 0.75 mg/kg/injection, schedule: Q01DX009 (ip), vehicle: alcohol): 160 % of control | T/C (dose: 1.5 mg/kg/injection, schedule: Q01DX009 (ip), vehicle: alcohol): 160 % of control and 163 % of control

Cc1c(Cl)cccc1Nc1ncccc1C(=O)O
T/C [12]: 95 % of control | T/C (dose: 100.0 mg/kg/injection, schedule: Q01DX005 (ip), vehicle: saline with Tween-80): 105 % of control

O=C1CCSC(=S)N1c1ccc(Cl)c(C(F)(F)F)c1
T/C (dose: 25.0 mg/kg/injection, schedule: Q01DX009 (ip), vehicle: saline): 101 % of control and 91 % of control | T/C [13]: 100 % of control and 106 % of control and 107 % of control | T/C [14]: 110 % of control and 118 % of control and 98 % of control | T/C [15]: 100 % of control and 119 % of control

C=C1C2CCC3C45C=NCC(C)(CCC4)C5CCC3(C2)C1OC(C)=O (centres undefined)
T/C (dose: 2.0 mg/kg/injection, schedule: Q01DX009 (ip), vehicle: Klucel (hydroxypropylcellulose) (HPC)): 104 % of control | T/C (dose: 4.0 mg/kg/injection, schedule: Q01DX009 (ip), vehicle: Klucel (hydroxypropylcellulose) (HPC)): 94 % of control | T/C (dose: 8.0 mg/kg/injection, schedule: Q01DX009 (ip), vehicle: Klucel (hydroxypropylcellulose) (HPC)): 104 % of control | T/C (dose: 16.0 mg/kg/injection, schedule: Q01DX009 (ip), vehicle: Klucel (hydroxypropylcellulose) (HPC)): 93 % of control

Cn1c(O)c(N=NC(N)=S)c2ccccc21
T/C [19]: 95 % of control | T/C (dose: 200.0 mg/kg/injection, schedule: Q04DX003 (ip), vehicle: saline with Tween-80): 87 % of control

O=S1(=O)CS(=O)(=O)OCCCCCO1
T/C (dose: 6.25 mg/kg/injection, schedule: Q01DX005 (ip), vehicle: Klucel (hydroxypropylcellulose) (HPC)): 161 % of control | T/C (dose: 12.5 mg/kg/injection, schedule: Q01DX005 (ip), vehicle: Klucel (hydroxypropylcellulose) (HPC)): 211 % of control and 213 % of control | T/C (dose: 25.0 mg/kg/injection, schedule: Q01DX005 (ip), vehicle: Klucel (hydroxypropylcellulose) (HPC)): 255 % of control and 288 % of control | T/C [1]: 165 % of control and 288 % of control

CCCC#CC#N
T/C (dose: 50.0 mg/kg/injection, schedule: Q01DX009 (ip), vehicle: olive oil, sesame oil, peanut oil): 116 % of control

CC(C)c1cccc(C(C)C)c1NC(=O)N1CCCCC1
T/C [9]: 99 % of control | T/C [10]: 93 % of control | T/C [11]: 100 % of control

COc1cccc2[se]c(C(=O)O)cc12
T/C [13]: 92 % of control | T/C [14]: 89 % of control

CNCCCC1c2ccccc2C=Cc2ccccc21
T/C (dose: 6.25 mg/kg/injection, schedule: Q01DX009 (ip), vehicle: saline): 100 % of control | T/C (dose: 12.5 mg/kg/injection, schedule: Q01DX009 (ip), vehicle: saline): 90 % of control

O=C(c1ccccc1)C1(c2ccccc2)CCN(Cc2ccccc2)CC1
T/C [20]: 93 % of control | T/C [21]: 86 % of control | T/C [22]: 94 % of control

CCN(CC)CCCOC(=O)N(Cc1ccc(Cl)cc1)C1CC1
T/C (dose: 25.0 mg/kg/injection, schedule: Q01DX009 (ip), vehicle: saline + Tween-80 + alcohol): 108 % of control | T/C (dose: 50.0 mg/kg/injection, schedule: Q01DX009 (ip), vehicle: saline + Tween-80 + alcohol): 108 % of control | T/C (dose: 100.0 mg/kg/injection, schedule: Q01DX009 (ip), vehicle: saline + Tween-80 + alcohol): 110 % of control

O=C(CCl)N/N=C/c1ccccc1
T/C [23]: 106 % of control | T/C [13]: 97 % of control | T/C [24]: 107 % of control | T/C [14]: 95 % of control | T/C [25]: 111 % of control | T/C [15]: 96 % of control

Brc1c(Br)c(Br)c2n[nH]nc2c1Br
T/C (dose: 25.0 mg/kg/injection, schedule: Q01DX009 (ip), vehicle: saline with Tween-80): 103 % of control | T/C [23]: 106 % of control | T/C [24]: 103 % of control | T/C [25]: 115 % of control

S=C(N/N=C1/CCCC/C1=N/NC(=S)N1CCOCC1)N1CCOCC1
T/C (dose: 1.56 mg/kg/injection, schedule: Q01DX005 (ip), vehicle: saline with Tween-80): 101 % of control and 103 % of control | T/C (dose: 3.12 mg/kg/injection, schedule: Q01DX005 (ip), vehicle: saline with Tween-80): 99 % of control and 103 % of control and 104 % of control

OC1CC2CCCCC2CC1c1ccccc1 (centres undefined)
T/C (dose: 50.0 mg/kg/injection, schedule: Q04DX002 (ip), vehicle: saline with Tween-80): 100 % of control and 92 % of control | T/C [20]: 111 % of control and 92 % of control | T/C [21]: 92 % of control and 97 % of control | T/C [22]: 116 % of control

CCOC(=O)[C]1([Sb]([CH3])[CH3])N=NC(C(=O)OC)=C1C(=O)OC (centres undefined)
T/C (dose: 25.0 mg/kg/injection, schedule: Q04DX003 (ip), vehicle: saline): 101 % of control and 98 % of control | T/C (dose: 50.0 mg/kg/injection, schedule: Q04DX003 (ip), vehicle: saline): 100 % of control and 102 % of control | T/C [19]: 108 % of control | T/C (dose: 100.0 mg/kg/injection, schedule: Q04DX003 (ip), vehicle: saline): 102 % of control and 104 % of control | T/C (dose: 200.0 mg/kg/injection, schedule: Q04DX003 (ip), vehicle: saline): 107 % of control and 98 % of control | T/C (dose: 400.0 mg/kg/injection, schedule: Q04DX003 (ip), vehicle: saline with Tween-80): 105 % of control
